# Experimental data as given in US8969335B2, “Benzonitrile derivatives as kinase inhibitors” (MERCK PATENT GmbH, priority 2011, dated 2015).
# pIC50: −log10 of the molar value.
# How the values were obtained:
# [1] = target: TANK binding kinase (TBK1) (Homo sapiens (Human), UniProt Q9UHD2); experiment: TBK1 enzyme assay (384-well flashplate kinase assay); format: biochemical; conditions: 0.6 nM TBK1, 10 μM ATP, 30° C., 120 min
# IKKε = IKKε (Homo sapiens (Human), UniProt Q14164); experiment: IKKε kinase assay (384-well flashplate assay); format: biochemical; conditions: 1 nM IKKε, 10 μM ATP, 30° C., 2 hours; read-out: IKKε enzyme assay IC50
# Chain of IKKε (Q14164 whole entry): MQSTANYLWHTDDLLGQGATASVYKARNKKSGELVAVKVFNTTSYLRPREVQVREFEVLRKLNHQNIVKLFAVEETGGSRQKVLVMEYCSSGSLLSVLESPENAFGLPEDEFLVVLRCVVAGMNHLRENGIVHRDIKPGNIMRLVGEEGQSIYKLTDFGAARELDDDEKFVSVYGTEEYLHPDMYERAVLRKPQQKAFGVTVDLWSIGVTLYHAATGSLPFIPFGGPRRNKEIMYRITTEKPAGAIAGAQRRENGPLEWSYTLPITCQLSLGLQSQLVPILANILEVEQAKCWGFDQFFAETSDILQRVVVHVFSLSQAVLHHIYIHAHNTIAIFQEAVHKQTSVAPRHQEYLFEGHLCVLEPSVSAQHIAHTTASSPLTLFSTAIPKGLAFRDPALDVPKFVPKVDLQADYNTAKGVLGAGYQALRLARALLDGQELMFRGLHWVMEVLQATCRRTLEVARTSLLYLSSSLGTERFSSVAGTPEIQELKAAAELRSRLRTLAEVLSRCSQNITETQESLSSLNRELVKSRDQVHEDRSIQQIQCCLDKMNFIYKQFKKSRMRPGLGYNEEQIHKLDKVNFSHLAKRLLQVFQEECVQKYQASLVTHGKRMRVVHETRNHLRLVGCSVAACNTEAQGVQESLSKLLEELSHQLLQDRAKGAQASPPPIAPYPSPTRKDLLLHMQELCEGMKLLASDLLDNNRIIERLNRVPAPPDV
# Method: Test for the Inhibition of IKKε
# IKKε—Kinase Assay (IKKepsilon)
# The kinase assay is performed as 384-well flashplate assay (for example for Topcount measurement).
# 1 nM IKKε, 800 nM biotinylated IκBα(19-42) peptide (Biotin-C6-C6-[…]) and 10 μM ATP (spiked with 0.3 μCi of ^33P-ATP/well) are incubated at 30° C. for 2 hours in a total volume of 50 μl (10 mM MOPS, 10 mM Mg acetate, 0.1 mM EGTA, 1 mM dithiothreitol, 0.02% of Brij35, 0.1% of BSA, 0.1% of BioStab, pH 7.5) with or without test compound. The reaction is stopped using 25 μl of 200 mM EDTA. After 30 min at room temperature, the liquid is removed, and each well is washed three times with 100 μl of 0.9% sodium chloride solution. Non-specific reaction is determined in the presence of 3 μM MSC2119074 (BX-795). The radioactivity is measured using a Topcount (PerkinElmer). The results (for example IC50 values) are calculated using program tools provided by the IT Department (for example AssayExplorer, Symyx).
# Chain of TANK binding kinase (TBK1) (Q9UHD2 whole entry): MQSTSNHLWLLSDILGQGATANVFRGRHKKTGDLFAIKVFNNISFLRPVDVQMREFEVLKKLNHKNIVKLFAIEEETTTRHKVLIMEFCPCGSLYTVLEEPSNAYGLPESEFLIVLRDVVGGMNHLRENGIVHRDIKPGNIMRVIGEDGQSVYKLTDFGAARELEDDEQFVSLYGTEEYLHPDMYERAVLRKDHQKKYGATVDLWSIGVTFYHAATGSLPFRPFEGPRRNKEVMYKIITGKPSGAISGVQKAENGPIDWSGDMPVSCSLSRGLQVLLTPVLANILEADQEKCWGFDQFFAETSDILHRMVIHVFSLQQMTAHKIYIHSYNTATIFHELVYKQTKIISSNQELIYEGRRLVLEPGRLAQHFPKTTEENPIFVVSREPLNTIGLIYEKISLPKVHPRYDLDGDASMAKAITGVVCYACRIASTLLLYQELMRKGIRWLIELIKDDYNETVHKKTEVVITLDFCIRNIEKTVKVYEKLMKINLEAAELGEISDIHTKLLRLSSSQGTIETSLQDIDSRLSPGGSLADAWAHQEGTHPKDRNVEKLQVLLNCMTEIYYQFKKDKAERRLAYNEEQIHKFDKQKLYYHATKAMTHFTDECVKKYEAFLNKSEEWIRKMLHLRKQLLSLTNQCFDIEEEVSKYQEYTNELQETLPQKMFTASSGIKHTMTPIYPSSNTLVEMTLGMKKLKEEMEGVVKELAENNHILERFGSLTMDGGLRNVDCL
Structure (SMILES),pIC50 [1],pIC50 (IKKε)
"N#Cc1cc(-c2ccnc(Nc3ccc(C(F)(F)F)cn3)c2)ccc1OC1CCOCC1 [Compound A13, 2-(Tetrahydropyran-4-yloxy)-5-[2-(5-trifluoromethylpyridin-2-ylamino)pyridin-4-yl]-benzonitrile]",6.51,6.28
"N#Cc1cc(-c2ccnc(Nc3ncccn3)c2)ccc1OC1CCOCC1 [Compound A14, 5-[2-(Pyrimidin-2-ylamino)pyridin-4-yl]-2-(tetrahydropyran-4-yloxy)benzonitrile]",6.17,5.92
"N#Cc1cc(-c2ccnc(Nc3ccc(CO)cn3)c2)ccc1OC1CCOCC1 [Compound A15, 5-[2-(5-Hydroxymethylpyridin-2-ylamino)pyridin-4-yl]-2-(tetrahydropyran-4-yloxy)benzonitrile]",7.85,7.68
"N#Cc1cc(-c2ccnc(Nc3cnn(C4CCNCC4)c3)c2)ccc1OC1CCOCC1 [Compound A16, 5-[2-(1-Piperidin-4-yl-1H-pyrazol-4-ylamino)pyridin-4-yl]-2-(tetrahydropyran-4-yloxy)benzonitrile]",7.15,8.15
"N#Cc1cc(-c2ccnc(Nc3cc(CO)ccn3)c2)ccc1OC1CCOCC1 [Compound A18, 5-[2-(4-Hydroxymethylpyridin-2-ylamino)pyridin-4-yl]-2-(tetrahydropyran-4-yloxy)benzonitrile]",8.10,7.89
"N#Cc1cc(-c2ccnc(Nc3ccc4oc(C(N)=O)cc4c3)c2)ccc1OC1CCOCC1 [Compound A19, 5-{4-[3-Cyano-4-(tetrahydropyran-4-yloxy)phenyl]pyridin-2-ylamino}benzofuran-2-carboxamide]",5.72,6.41
"N#Cc1cc(-c2ccnc(Nc3cnn(C4CNC4)c3)c2)ccc1OC1CCOCC1 [Compound A25, 5-[2-(1-Azetidin-3-yl-1H-pyrazol-4-ylamino)pyridin-4-yl]-2-(tetrahydropyran-4-yloxy)benzonitrile]",6.54,7.17
"N#Cc1cc(-c2ccnc(Nc3cnn(C[C@H]4C[C@@H]4CO)c3)c2)ccc1OC1CCOCC1 [Compound A26, 5-{2-[1-((1S,2S)-2-Hydroxymethylcyclopropylmethyl)-1H-pyrazol-4-ylamino]-pyridin-4-yl}-2-(tetrahydropyran-4-yloxy)benzonitrile]",7.74,7.57
"N#Cc1cc(-c2ccnc(Nc3cnn(CC4CCOC4)c3)c2)ccc1OC1CCOCC1 (centres unmarked) [Compound A27, 5-{2-[1-(Tetrahydrofuran-3-ylmethyl)-1H-pyrazol-4-ylamino]pyridin-4-yl}-2-(tetrahydropyran-4-yloxy)benzonitrile]",7.07,7.11
"N#Cc1cc(-c2ccnc(Nc3cnn(CCC4CCN(C(=O)CN)CC4)c3)c2)ccc1OC1CCOCC1 [Compound A30, 5-[2-(1-{2-[1-(2-Aminoacetyl)piperidin-4-yl]ethyl}-1H-pyrazol-4-ylamino)pyridin-4-yl]-2-(tetrahydropyran-4-yloxy)benzonitrile]",7.38,7.35
"CC(C)(C)c1cc(Nc2cc(-c3ccc(OC4CCOCC4)c(C#N)c3)ccn2)on1 [Compound A31, 5-[2-(3-tert-Butylisoxazol-5-ylamino)pyridin-4-yl]-2-(tetrahydropyran-4-yloxy)benzonitrile]",6.07,6.07
"N#Cc1cc(-c2ccnc(Nc3ncc4c(n3)CCNC4)c2)ccc1OC1CCOCC1 [Compound A36, 2-(Tetrahydropyran-4-yloxy)-5-[2-(5,6,7,8-tetrahydropyrido[4,3-d]pyrimidin-2-ylamino)pyridin-4-yl]benzonitrile]",–,6.85
"N#Cc1cc(-c2ccnc(Nc3ccc(C(N)=O)cn3)c2)ccc1OC1CCOCC1 [Compound A37, 6-{4-[3-Cyano-4-(tetrahydropyran-4-yloxy)phenyl]pyridin-2-ylamino}nicotinamide]",7.49,7.68
"N#Cc1cc(-c2ccnc(Nc3cnn(CCn4cccn4)c3)c2)ccc1OC1CCOCC1 [Compound A38, 5-{2-[1-(2-Pyrazol-1-ylethyl)-1H-pyrazol-4-ylamino]pyridin-4-yl}-2-(tetrahydropyran-4-yloxy)benzonitrile]",6.34,6.49
"N#Cc1cc(-c2ccnc(Nc3cnn(CCN4CCOCC4)c3)n2)ccc1OC1CCOCC1 [Compound A39, 5-{2-[1-(2-Morpholin-4-ylethyl)-1H-pyrazol-4-ylamino]pyrimidin-4-yl}-2-(tetrahydropyran-4-yloxy)benzonitrile]",7.80,7.60
"N#Cc1cc(-c2ccnc(Nc3cnn(C4CCNC4)c3)n2)ccc1OC1CCOCC1 (centres unmarked) [Compound A40, 5-[2-(1-Pyrrolidin-3-yl-1H-pyrazol-4-ylamino)pyrimidin-4-yl]-2-(tetrahydropyran-4-yloxy)benzonitrile]",8.15,8.30
"N#Cc1cc(-c2ccnc(Nc3cnn(CC4CCOC4)c3)n2)ccc1OC1CCOCC1 (centres unmarked) [Compound A41, 5-{2-[1-(Tetrahydrofuran-3-ylmethyl)-1H-pyrazol-4-ylamino]pyrimidin-4-yl}-2-(tetrahydropyran-4-yloxy)benzonitrile]",7.92,7.60
"N#Cc1cc(-c2ccnc(Nc3ccc4oc(C(N)=O)cc4c3)n2)ccc1OC1CCOCC1 [Compound A42, 5-{4-[3-Cyano-4-(tetrahydropyran-4-yloxy)phenyl]pyrimidin-2-ylamino}benzofuran-2-carboxamide]",8.00,7.82
"N#Cc1cc(-c2ccnc(Nc3cnn(CCn4cccn4)c3)n2)ccc1OC1CCOCC1 [Compound A43, 5-{2-[1-(2-Pyrazol-1-ylethyl)-1H-pyrazol-4-ylamino]pyrimidin-4-yl}-2-(tetrahydropyran-4-yloxy)benzonitrile]",7.15,7.19
"N#Cc1cc(-c2ccnc(Nc3cnn(CC(F)F)c3)n2)ccc1OC1CCOCC1 [Compound A44, 5-{2-[1-(2,2-Difluoroethyl)-1H-pyrazol-4-ylamino]pyrimidin-4-yl}-2-(tetrahydropyran-4-yloxy)benzonitrile]",8.30,8.00
"N#Cc1cc(-c2ccnc(Nc3cnn(CCC4CCNCC4)c3)n2)ccc1OC1CCOCC1 [Compound A45, 5-{2-[1-(2-Piperidin-4-ylethyl)-1H-pyrazol-4-ylamino]pyrimidin-4-yl}-2-(tetrahydropyran-4-yloxy)benzonitrile]",8.70,8.70
"N#Cc1cc(-c2ccnc(Nc3cc(C(=O)O)ccn3)c2)ccc1OC1CCOCC1 [Compound A65, 2-{4-[3-cyano-4-(tetrahydropyran-4-yloxy)phenyl]pyridin-2-ylamino}isonicotinic acid]",6.77,6.92
"Cn1nc(Nc2nccc(-c3ccc(OC4CCOCC4)c(C#N)c3)n2)ccc1=O [Compound A68, 5-[2-(1-methyl-6-oxo-1,6-dihydropyridazin-3-ylamino)pyrimidin-4-yl]-2-(tetrahydropyran-4-yloxy)benzonitrile]",6.80,6.70
"N#Cc1cc(-c2ccnc(Nc3ccc(=O)[nH]n3)n2)ccc1OC1CCOCC1 [Compound A69, 5-[2-(6-oxo-1,6-dihydropyridazin-3-ylamino)pyrimidin-4-yl]-2-(tetrahydropyran-4-yloxy)benzonitrile]",5.80,6.19
